Laboratory results: article PMC5526999, “Mass Spectrometry Imaging proves differential absorption profiles of well-characterised permeability markers along the crypt-villus axis” (Scientific Reports, 2017)

Legend:
[1] = set-up: method as in PMID 1673839, PMID 11259831, PMID 9523990; settings: ref [1], [15] and [48]; cited from earlier work
[2] = MALDI-MSI of drug distribution in rat small intestine after oral cassette administration; type: in vivo; settings: oral 10 µmol/kg
Method: Male rats (Han-Wistar, ~ 100 days old, body-weight ~ 300 g) were used in this study. […] All experiments were performed in accordance with relevant guidelines and regulations, the animal work was approved by the Local Animal Research Ethics Board of Gothenburg, Sweden. […] Four animals were dosed in this study, and non-dosed tissue was prepared from control rats in parallel. […] Therefore, in the present study we focussed on the concept of “vertical” absorption gradients along the crypt-villous axis, which has not been studied earlier. The intestine was removed under anaesthesia using isoflurane (Forene, Abbott, USA), to ensure full viability and oxygenation of the tissue until the moment of excision. Animals were sacrificed without regaining consciousness by aortal incision and an overdose of isoflurane. Immediately after excision, intestines were divided into 10 cm long segments and each segment was carefully washed with Krebs-Bicarbonate-Ringer buffer (KBR) from the stomach to the large intestine (additional information in Supplementary Data). The first 5–10 mm of each segment were cut, quickly weighed and collected in homogenization tubes for subsequent extraction and LCMS analysis of total drug concentration in the gut-wall. The next 8–9 cm of each segment were prepared for MALDI-MSI analysis. […] The CMC gels quickly on wet-ice/isopropanol and provides tissue support during the subsequent cryosectioning. All samples were stored at −20 °C until cryosectioning. The embedded samples were attached and positioned with OCT-compound (TissueTek) to the specimen holder of a microtome (Cryo-Star HM 560 M, Microm International, Germany) set to −20 °C. The samples were sectioned at 10 µm thickness. […] A control tissue section from the same intestinal region from non-dosed animal was placed on each slide to enable a direct comparison to be made. All slides were kept at −80 °C until MALDI-MSI analysis. Tissue sections were also stained using haematoxylin and eosin (H&E) following a standard histological protocol for fresh frozen tissues. […] Additional optimization was performed using a robotic matrix sprayer (TM-Sprayer, HTX Technologies, USA) in order to minimize delocalization and crystal size, while still maintaining adequate extraction of compound from the tissue. […] An optical image (9600 dpi) of the glass slide was acquired using a flatbed scanner (Epson perfection V500). The tissue sections were coated with DHB (35 mg/ml, 70% ACN, 0.2% TFA) using a robotic sprayer with a flow of rate 70 µl/min, stage speed of 1100 mm/min, track spacing of 2 mm (crisscross pattern), nitrogen pressure 6 psi, and spray nozzle temperature set to 95 °C for 8 passes. […] FlexImaging 4.0 (Bruker Daltonics) and msIQuant 2.0 was used for data analysis, normalization (to total ion count) and ion image extraction.

[3] = LC-ESI MS/MS quantification of drug concentration in intestinal tissue homogenates after oral cassette administration; type: in vivo, rat
Method: Male rats (Han-Wistar, ~ 100 days old, body-weight ~ 300 g) were used in this study. […] All experiments were performed in accordance with relevant guidelines and regulations, the animal work was approved by the Local Animal Research Ethics Board of Gothenburg, Sweden. […] Four animals were dosed in this study, and non-dosed tissue was prepared from control rats in parallel. […] Therefore, in the present study we focussed on the concept of “vertical” absorption gradients along the crypt-villous axis, which has not been studied earlier. The intestine was removed under anaesthesia using isoflurane (Forene, Abbott, USA), to ensure full viability and oxygenation of the tissue until the moment of excision. Animals were sacrificed without regaining consciousness by aortal incision and an overdose of isoflurane. Immediately after excision, intestines were divided into 10 cm long segments and each segment was carefully washed with Krebs-Bicarbonate-Ringer buffer (KBR) from the stomach to the large intestine (additional information in Supplementary Data). The first 5–10 mm of each segment were cut, quickly weighed and collected in homogenization tubes for subsequent extraction and LCMS analysis of total drug concentration in the gut-wall. The next 8–9 cm of each segment were prepared for MALDI-MSI analysis. […] The CMC gels quickly on wet-ice/isopropanol and provides tissue support during the subsequent cryosectioning. All samples were stored at −20 °C until cryosectioning. […] The supernatants were transferred to fresh vials and centrifuged again under the same conditions. […] The samples were analysed by LC-MS/MS and quantified against a calibration standard curve. The LC-MS/MS analysis was performed using an electrospray ionization tandem quadrupole mass spectrometer (Quattro Premier, Waters, USA) in positive ionization mode. The mass spectrometer was integrated with an ultra-performance liquid chromatography (UPLC) system (Acquity, Waters) assisted with a column manager. Chromatography was performed on a column (Acquity UPLC HSS T3, 2.1 × 50 mm) at 40 °C. The flow rate was 1000 µL/min and the injection volume was 5 µL. The mobile phases consisted of A: water, 0.2% (v/v) formic acid and 2% (v/v) acetonitrile and B: acetonitrile, 0.2% (v/v) formic acid. […] Data was acquired using multiple reaction monitoring (MRM) and mass transitions determined by QuanOptimize (Waters). Instrument control and data processing was performed using MassLynx 4.1 software including QuanLynx (Waters).

Caco-2 = test system: Caco-2; set-up: method as in PMID 1673839, PMID 11259831, PMID 9523990; settings: ref [1], [15] and [48]; cited from earlier work
[4] = no reference given; cited from earlier work
[5] = oral 10 µmol/kg, 20 min post administration
[6] = 20 min, 30 cm along the intestine, line graph along crypt-villus axis

distance over which the gradient from villus tip towards crypt region runs [2, 6] [µm] | lower tissue concentration at 45 min compared to 20 min (LC-MS/MS) ([3]; male, Han-Wistar, rat, in vivo, po) | lower level at 45 min compared to 20 min (MSI) ([2]; 40 cm sample) | distance from the villus tips of significant reduction in abundance [2, 6] | lower tissue concentration at 45 min compared to 20 min (LC-MS/MS) ([3]; oral 10 µmol/kg, 40 cm sample) | Structure (SMILES) | Ion Class [1] | intensity profile from villus tip to base (line graph) ([2]; 20 min, 30 cm along the intestine) | localisation across and within the villi (transverse profile) ([2]; 20 min, profile perpendicular to the villus axis) | distance from the pyloro-duodenal junction of highest concentration (LC-ESI MS/MS homogenates) ([3]; oral 1 µmol/kg, 20 min post administration) [cm] | intestinal sample with highest concentration [3, 5] [cm] | Caco-2 Papp (Caco-2) | Tmax in the rat [4] [min]
– | – | – | – | – | CC(C)NCC(O)COc1ccc(CC(N)=O)cc1 (stereo not drawn) [Atenolol] | Base | maintain similar intensities all the way from the villus tip to the basal regions | localized primarily between the villi | 50 | 20 | – | –
200 | about 3 fold | – | – | – | COCCc1ccc(OCC(O)CNC(C)C)cc1 (stereo not drawn) [Metoprolol] | – | – | – | – | – | 27.0 1E-6.cm/s | < 20
– | – | about 3 fold | 400–500 µm | about 3 fold | CC(C)NCC(O)COc1cccc2ccccc12 (stereo not drawn) [Propranolol] | Base | – | – | – | 30 | 41.9 1E-6.cm/s | –
